# Patent US10577317B2, “Crystal forms and production methods thereof” (Sunovion Pharmaceuticals Inc., priority 2017, dated 2020)
# “Also recorded” adds a separate entry of the source. Like-named read-outs stand apart in the source and are kept apart here.
# Experiments:
# Type in all cases: physicochemical
# [1] = Desolvation of ethyl acetate solvate crystal forms upon drying and heating; settings: drying and heating above about 30° C.
# Procedure: For example, Examples 4A and 4B teach methods of producing crystalline (R)-amisulpride ethyl acetate solvate of Form B. The product of these examples upon drying above about 30° C., desolvates and converts to crystals of crystalline (R)-amisulpride free base of Form A and amorphous. Similarly, for example, Example 7 teaches a method producing crystalline (S)-amisulpride ethyl acetate solvate of Form B′. The product of these examples upon drying above about 30° C., desolvates and converts to crystals of crystalline (S)-amisulpride free base of Form A′ and amorphous. Although the fraction of the solvate that converts to Form A or Form A′ in the above examples is low, it is sufficient for obtaining seed crystals.
# In various preferred embodiments, crystals of enantiomeric amisulpride ethyl acetate solvate are isolated by cooling the reaction mixture to below about 10° C., and preferably to about −10° C., until a slurry is formed. The slurry is slowly warmed and agitated for at least 1 hour at a temperature less than about 10° C., then filtered and washed with ethyl acetate at room temperature, and the resultant residue allowed to dry to isolate the desired crystalline enantiomeric amisulpride ethyl acetate solvate having a powder x-ray crystal pattern comprising peaks, in terms of 2-theta, at least at 6.4±0.2°, 8.3±0.2°, and 20.8±0.2°.
# [2] = Solubility (mg/mL) in water, buffers, simulated fluids and organic solvents (Table 1)
# [3] = DVS water sorption isotherm, 25° C. scanned over 0 to 95% relative humidity (hygroscopicity); settings: DVS, 25° C., 0 to 95% relative humidity
# Source text: In various embodiments, the hygroscopicity of crystal forms of racemic amisulpride, enantiomeric amisulpride, and enantiomeric amisulpride solvates are characterized by dynamic vapor sorption (DVS). DVS is a gravimetric technique that measures how much of a solvent is absorbed by a sample by varying the vapor concentration surrounding the sample (e.g., relative humidity) and measuring the change in mass. In the present application, DVS is used to generate water sorption isotherms, which represent the equilibrium amount of vapor sorbed as a function of steady state relative vapor pressure at a constant temperature.
smiles,measurement,setting,value
"CCN1CCC[C@@H]1CNC(=O)c1cc(S(=O)(=O)CC)c(N)cc1OC.CCOC(C)=O [Form B, (R)-4-Amino-N-[(1-ethyl-2-pyrrolidinyl)methyl]-5-(ethylsulfonyl)-2-methoxybenzamide ethyl acetate solvate]",desolvation of ethyl acetate solvate form,[1],desolvate upon drying and heating about 30 °C to convert to Form A; also recorded: desolvate to Form A and amorphous
"CCN1CCCC1CNC(=O)c1cc(S(=O)(=O)CC)c(N)cc1OC (racemic) [crystalline racemic amisulpride, 4-amino-N-[(1-ethylpyrrolidin-2-yl)methyl]-5-ethylsulfonyl-2-methoxy-benzamide, reference compound]",solubility,"[2]; acetone/MtBE 1:4, organic solvent or mixture, read-out: Solubility (mg/mL): Acetone/MtBE 1:4",0.4 mg/mL
same,solubility,"[2]; acetone/MtBE 1:9, organic solvent or mixture, read-out: Solubility (mg/mL): Acetone/MtBE 1:9",0.2 mg/mL
same,solubility,"[2]; ethyl acetate, organic solvent or mixture, read-out: Solubility (mg/mL): Ethyl Acetate",0.5 mg/mL
same,solubility,"[2]; water, solution pH 10.2 (Form A), 10.3 (Form A′), read-out: Solubility (mg/mL): Water",< 1 mg/mL
"CCN1CCC[C@H]1CNC(=O)c1cc(S(=O)(=O)CC)c(N)cc1OC.CCOC(C)=O [Form B′, S-4-Amino-N-[(1-ethyl-2-pyrrolidinyl)methyl]-5-(ethylsulfonyl)-2-methoxybenzamide ethyl acetate solvate]",desolvation of ethyl acetate solvate form,[1],desolvate upon drying and heating about 30 °C; also recorded: desolvate to Form A′ and amorphous
"CCN1CCC[C@H]1CNC(=O)c1cc(S(=O)(=O)CC)c(N)cc1OC.O=C(O)C(O)C(O)C(=O)O [(S)-amisulpride D-tartrate, S-(−)-4-Amino-N-[(1-ethyl-2-pyrrolidinyl)methyl]-5-(ethylsulfonyl)-2-methoxybenzamide D-tartrate, reference compound]",hygroscopicity,[3],highly hygroscopic
same,"maximum mass change in water sorption isotherms (n=4, σ=18.25)",[3]; n=4,52±9%
